{
  "source": "ChEMBL document CHEMBL1287717",
  "about": "“Design and synthesis of macrocyclic indoles targeting blood coagulation cascade Factor XIa” (Bioorg Med Chem Lett, 2010)",
  "key": {"Coagulation factor XI [1]": {"target": "T1, Coagulation factor XI (Homo sapiens, UniProt P03951)", "T1 sequence (P03951 19-387 limits assumed)": "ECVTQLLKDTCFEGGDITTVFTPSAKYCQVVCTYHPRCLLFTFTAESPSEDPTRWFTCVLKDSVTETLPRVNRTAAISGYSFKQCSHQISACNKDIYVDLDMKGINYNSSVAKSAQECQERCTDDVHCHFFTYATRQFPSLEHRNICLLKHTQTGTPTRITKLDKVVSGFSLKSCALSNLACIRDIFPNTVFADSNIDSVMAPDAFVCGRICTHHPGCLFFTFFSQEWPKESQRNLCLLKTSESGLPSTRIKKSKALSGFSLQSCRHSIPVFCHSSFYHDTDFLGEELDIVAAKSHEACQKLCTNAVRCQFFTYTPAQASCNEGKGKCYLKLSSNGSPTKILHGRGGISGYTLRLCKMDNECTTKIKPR", "T1 sequence (P03951 388-625 limits assumed)": "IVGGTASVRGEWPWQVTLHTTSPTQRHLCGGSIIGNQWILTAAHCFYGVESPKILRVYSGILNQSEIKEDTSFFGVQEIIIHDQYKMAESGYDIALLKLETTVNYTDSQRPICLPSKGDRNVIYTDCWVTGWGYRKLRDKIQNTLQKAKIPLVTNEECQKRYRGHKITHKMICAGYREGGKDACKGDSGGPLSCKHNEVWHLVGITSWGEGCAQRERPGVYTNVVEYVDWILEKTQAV", "assay": "Inhibition of factor 11a at 300 uM"}, "Prothrombin [2]": {"target": "T2, Prothrombin (Homo sapiens, UniProt P00734)", "assay": "Inhibition of factor 2a at 300 uM"}, "Trypsin": {"target": "Trypsin (Homo sapiens, UniProt P07477+P07478+P35030)", "assay": "Inhibition of human trypsin", "assay_type": "protein assay"}, "[3]": {"target": "T3, Vitamin K-dependent protein C (Homo sapiens, UniProt P04070)", "T3 sequence (P04070 43-197 limits assumed)": "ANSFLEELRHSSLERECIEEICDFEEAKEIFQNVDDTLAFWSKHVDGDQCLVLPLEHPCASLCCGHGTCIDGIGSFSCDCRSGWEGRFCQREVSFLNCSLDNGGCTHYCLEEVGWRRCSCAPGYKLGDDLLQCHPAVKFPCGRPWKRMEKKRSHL", "T3 sequence (P04070 212-461 limits assumed)": "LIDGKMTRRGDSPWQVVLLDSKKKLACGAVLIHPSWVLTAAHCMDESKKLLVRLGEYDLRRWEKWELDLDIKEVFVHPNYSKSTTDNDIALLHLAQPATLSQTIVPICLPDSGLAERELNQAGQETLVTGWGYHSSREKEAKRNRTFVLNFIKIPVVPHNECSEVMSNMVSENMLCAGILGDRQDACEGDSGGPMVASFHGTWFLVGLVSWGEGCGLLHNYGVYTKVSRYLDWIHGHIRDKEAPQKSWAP", "assay": "Inhibition of activated protein C at 300 uM"}, "Prothrombin [4]": {"target": "T2, Prothrombin", "assay": "Inhibition of factor 2a"}, "Coagulation factor XI [5]": {"target": "T1, Coagulation factor XI", "assay": "Inhibition of factor 11a"}, "[6]": {"target": "T3, Vitamin K-dependent protein C", "assay": "Inhibition of activated protein C"}, "[7]": {"target": "Coagulation factor IX (Homo sapiens) (UniProt P00740)", "sequence (P00740 47-191 limits assumed)": "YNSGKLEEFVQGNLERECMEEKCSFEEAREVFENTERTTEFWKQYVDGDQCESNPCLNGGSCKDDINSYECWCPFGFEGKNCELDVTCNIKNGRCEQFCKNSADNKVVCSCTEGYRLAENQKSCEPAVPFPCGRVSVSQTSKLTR", "sequence (P00740 227-461 limits assumed)": "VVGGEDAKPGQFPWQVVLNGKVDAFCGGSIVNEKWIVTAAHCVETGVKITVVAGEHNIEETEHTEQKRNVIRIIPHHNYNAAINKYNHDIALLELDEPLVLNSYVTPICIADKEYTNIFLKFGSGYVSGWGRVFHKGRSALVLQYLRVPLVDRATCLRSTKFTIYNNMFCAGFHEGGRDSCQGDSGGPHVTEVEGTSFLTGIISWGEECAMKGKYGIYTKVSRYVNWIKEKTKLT", "assay": "Inhibition of factor 9a at 300 uM"}},
  "note": "pIC50, pKi: −log10 of the molar value. Active and inactive are the calls of the source. The calls are words filed in the database; no cut-off is given here.",
  "data": [
    {"compound": "C=CCCS(=O)(=O)N[C@@H](C(=O)N[C@@H](CC(C)C)C(=O)NCc1c(CC=C)[nH]c2ccc(Cl)cc12)C1CCCCC1", "values": [
      {"measurement": "inhibition", "setting": "Coagulation factor XI [1]", "result": "inactive"},
      {"measurement": "inhibition", "setting": "Prothrombin [2]", "result": "inactive"},
      {"measurement": "IC50", "setting": "Trypsin", "result": 1.16, "unit": "µM"},
      {"measurement": "Kic", "setting": "Trypsin", "result": 0.142, "unit": "µM"},
      {"measurement": "inhibition", "setting": "[3]", "result": "inactive"}
    ]},
    {"compound": "CO[C@H](COS(=O)(=O)[O-])C(=O)N[C@@H](C(=O)N1[C@H](C(=O)NCCC2=CC[N+](=C(N)N)C2)C[C@@H]2C[C@H](O)[C@@H](O)C[C@@H]21)[C@H](Cl)C(C)C", "note": "[CHLORODYSINOSIN A]", "values": [
      {"measurement": "pIC50", "setting": "Prothrombin [4]", "result": 8.24}
    ]},
    {"compound": "CC(C)C[C@@H]1NC(=O)[C@@H](C2CCCCC2)NS(=O)(=O)CCCCCc2[nH]c3ccc(Cl)cc3c2CNC1=O", "values": [
      {"measurement": "inhibition", "setting": "Prothrombin [2]", "result": "inactive"},
      {"measurement": "IC50", "setting": "Trypsin", "result": 2.43, "unit": "µM"},
      {"measurement": "Kic", "setting": "Trypsin", "result": 0.296, "unit": "µM"},
      {"measurement": "inhibition", "setting": "[3]", "result": "inactive"},
      {"measurement": "pIC50", "setting": "Coagulation factor XI [5]", "result": 3.75},
      {"measurement": "Kic", "setting": "Coagulation factor XI [5]", "result": 87.9, "unit": "µM"}
    ]},
    {"compound": "C=CCCC(=O)N[C@@H](C(=O)N[C@@H](CC(C)C)C(=O)NCc1c(CC=C)[nH]c2ccc(Cl)cc12)C1CCCCC1", "values": [
      {"measurement": "inhibition", "setting": "Prothrombin [2]", "result": "inactive"},
      {"measurement": "IC50", "setting": "Trypsin", "result": 2.17, "unit": "µM"},
      {"measurement": "Kic", "setting": "Trypsin", "result": 0.264, "unit": "µM"},
      {"measurement": "pIC50", "setting": "[6]", "result": 3.55},
      {"measurement": "Kic", "setting": "[6]", "result": 227, "unit": "µM"},
      {"measurement": "pIC50", "setting": "Coagulation factor XI [5]", "result": 3.99},
      {"measurement": "Kic", "setting": "Coagulation factor XI [5]", "result": 51.6, "unit": "µM"}
    ]},
    {"compound": "NC(N)=NCCC[C@@H]1NC(=O)[C@@H]2CCCN2C(=O)[C@@H](NC=O)CNC(=O)/C=C/[C@H](Cc2ccc(O)cc2)NC(=O)[C@@H](Cc2ccccc2)NC(=O)C1=O", "note": "[CYCLOTHEONAMIDE A]", "values": [
      {"measurement": "pIC50", "setting": "Prothrombin [4]", "result": 8.82}
    ]},
    {"compound": "C=CCc1[nH]c2ccc(Cl)cc2c1CNC(=O)[C@H](CC(C)C)NC(=O)[C@H](NC(=O)[C@@H](CC=C)c1ccccc1)C1CCCCC1", "values": [
      {"measurement": "inhibition", "setting": "Prothrombin [2]", "result": "inactive"},
      {"measurement": "IC50", "setting": "Trypsin", "result": 0.16, "unit": "µM"},
      {"measurement": "Kic", "setting": "Trypsin", "result": 0.02, "unit": "µM"},
      {"measurement": "pIC50", "setting": "[6]", "result": 3.99},
      {"measurement": "Kic", "setting": "[6]", "result": 82.8, "unit": "µM"},
      {"measurement": "pIC50", "setting": "Coagulation factor XI [5]", "result": 3.84},
      {"measurement": "Kic", "setting": "Coagulation factor XI [5]", "result": 73, "unit": "µM"}
    ]},
    {"compound": "CC(C)C[C@@H]1NC(=O)[C@@H](C2CCCCC2)NC(=O)CC/C=C/Cc2[nH]c3ccc(Cl)cc3c2CNC1=O", "values": [
      {"measurement": "inhibition", "setting": "[7]", "result": "inactive"}
    ]},
    {"compound": "CC(C)C[C@@H]1NC(=O)[C@@H](C2CCCCC2)NC(=O)[C@H](c2ccccc2)CCCCc2[nH]c3ccc(Cl)cc3c2CNC1=O", "values": [
      {"measurement": "inhibition", "setting": "Coagulation factor XI [1]", "result": "inactive"},
      {"measurement": "inhibition", "setting": "Prothrombin [2]", "result": "inactive"},
      {"measurement": "IC50", "setting": "Trypsin", "result": 2.31, "unit": "µM"},
      {"measurement": "Kic", "setting": "Trypsin", "result": 0.281, "unit": "µM"},
      {"measurement": "inhibition", "setting": "[3]", "result": "inactive"}
    ]},
    {"compound": "CC(C)C[C@@H]1NC(=O)[C@@H](C2CCCCC2)NC(=O)[C@H](c2ccccc2)C/C=C/Cc2[nH]c3ccc(Cl)cc3c2CNC1=O", "values": [
      {"measurement": "inhibition", "setting": "Prothrombin [2]", "result": "inactive"},
      {"measurement": "IC50", "setting": "Trypsin", "result": 0.26, "unit": "µM"},
      {"measurement": "Kic", "setting": "Trypsin", "result": 0.031, "unit": "µM"},
      {"measurement": "pIC50", "setting": "[6]", "result": 3.84},
      {"measurement": "Kic", "setting": "[6]", "result": 116, "unit": "µM"},
      {"measurement": "pIC50", "setting": "Coagulation factor XI [5]", "result": 3.87}
    ]},
    {"compound": "CCCCCC(=O)NCC(=O)N[C@H](C(=O)N[C@@H]1C(=O)N[C@@H](CCC(N)=O)C(=O)N[C@H]2CC[C@@H](O)N(C2=O)[C@@H](Cc2ccccc2)C(=O)N(C)[C@@H](Cc2c[nH]c3ccccc23)C(=O)N[C@@H](C(C)C)C(=O)O[C@@H]1C)[C@@H](C)O", "note": "[MICROPEPTIN 103]", "values": [
      {"measurement": "pIC50", "setting": "Prothrombin [4]", "result": 5.06}
    ]},
    {"compound": "CC(C)C[C@@H]1NC(=O)[C@@H](C2CCCCC2)NS(=O)(=O)CC/C=C/Cc2[nH]c3ccc(Cl)cc3c2CNC1=O", "values": [
      {"measurement": "pIC50", "setting": "Prothrombin [4]", "result": 4.17},
      {"measurement": "Kic", "setting": "Prothrombin [4]", "result": 10.6, "unit": "µM"},
      {"measurement": "IC50", "setting": "Trypsin", "result": 2.69, "unit": "µM"},
      {"measurement": "Kic", "setting": "Trypsin", "result": 0.328, "unit": "µM"},
      {"measurement": "inhibition", "setting": "[3]", "result": "inactive"},
      {"measurement": "pIC50", "setting": "Coagulation factor XI [5]", "result": 3.11},
      {"measurement": "Kic", "setting": "Coagulation factor XI [5]", "result": 384, "unit": "µM"}
    ]},
    {"compound": "CC(C)C[C@@H]1NC(=O)[C@@H](C2CCCCC2)NC(=O)CCCCCc2[nH]c3ccc(Cl)cc3c2CNC1=O", "values": [
      {"measurement": "inhibition", "setting": "Coagulation factor XI [1]", "result": "inactive"},
      {"measurement": "pIC50", "setting": "Prothrombin [4]", "result": 4.97},
      {"measurement": "Kic", "setting": "Prothrombin [4]", "result": 1.7, "unit": "µM"},
      {"measurement": "IC50", "setting": "Trypsin", "result": 10, "unit": "µM"},
      {"measurement": "Kic", "setting": "Trypsin", "result": 1.22, "unit": "µM"},
      {"measurement": "pIC50", "setting": "[6]", "result": 3.40},
      {"measurement": "Kic", "setting": "[6]", "result": 316, "unit": "µM"}
    ]},
    {"compound": "O=C1Cn2c(Cl)cnc(c2=O)N[C@@H](Cc2ccccc2)CNCCCNCCc2ccc(Cl)cc2CN1", "values": [
      {"measurement": "pKi", "setting": "Prothrombin [4]", "result": 10.05}
    ]}
  ]
}
